From the NIST ThermoML archive (doi:10.1021/acs.jced.9b00752)

Experiment: mn = molality of the nth substance listed, in mol/kg
Conditions: 100 kPa, Liquid, Vibrating tube method

O=C(O)[C@@H]1CCCN1 [L-proline] + O
mass density [kg/m3]
Conditions | 278.65 K | 279.15 K | 279.65 K | 280.15 K | 280.65 K | 281.15 K | 281.65 K | 282.15 K | 282.65 K | 283.15 K
m1 = 0.0132 | 1000.41 | 1000.39 | 1000.38 | 1000.35 | 1000.33 | 1000.3 | 1000.27 | 1000.23 | 1000.19 | 1000.15
m1 = 0.0326 | 1001.08 | 1001.06 | 1001.04 | 1001.02 | 1000.99 | 1000.97 | 1000.93 | 1000.89 | 1000.85 | 1000.81
m1 = 0.0542 | 1001.81 | 1001.79 | 1001.77 | 1001.75 | 1001.72 | 1001.69 | 1001.66 | 1001.62 | 1001.57 | 1001.53
m1 = 0.0692 | 1002.32 | 1002.3 | 1002.27 | 1002.25 | 1002.22 | 1002.19 | 1002.15 | 1002.12 | 1002.07 | 1002.03
m1 = 0.0808 | 1002.71 | 1002.7 | 1002.67 | 1002.64 | 1002.61 | 1002.59 | 1002.55 | 1002.5 | 1002.46 | 1002.41
m1 = 0.1014 | 1003.42 | 1003.4 | 1003.37 | 1003.35 | 1003.31 | 1003.28 | 1003.25 | 1003.2 | 1003.16 | 1003.11
m1 = 0.1196 | 1004.08 | 1004.06 | 1004.03 | 1004 | 1003.97 | 1003.94 | 1003.9 | 1003.86 | 1003.81 | 1003.76
m1 = 0.1326 | 1004.49 | 1004.47 | 1004.44 | 1004.41 | 1004.38 | 1004.35 | 1004.31 | 1004.26 | 1004.21 | 1004.16
m1 = 0.1555 | 1005.24 | 1005.21 | 1005.19 | 1005.15 | 1005.12 | 1005.09 | 1005.04 | 1005 | 1004.95 | 1004.9
m1 = 0.1568 | 1005.37 | 1005.35 | 1005.32 | 1005.29 | 1005.25 | 1005.22 | 1005.18 | 1005.13 | 1005.08 | 1005.03
m1 = 0.1835 | 1006.18 | 1006.15 | 1006.12 | 1006.09 | 1006.05 | 1006.02 | 1005.98 | 1005.93 | 1005.88 | 1005.83
m1 = 0.2076 | 1006.97 | 1006.94 | 1006.91 | 1006.87 | 1006.83 | 1006.8 | 1006.75 | 1006.7 | 1006.65 | 1006.6
m1 = 0.2212 | 1007.63 | 1007.6 | 1007.57 | 1007.53 | 1007.5 | 1007.46 | 1007.41 | 1007.36 | 1007.31 | 1007.26
